Test results: patent US6825181B1, “Aminoisoquinoline derivatives” (Ajinomoto Co., Inc., priority 1998, dated 2004)

How the values were obtained:
Format in all cases: biochemical
[1] = target: T1, activated human blood coagulation factor X (Homo sapiens, UniProt P00742); assay: Determination of activity of inhibiting the activated blood-coagulation factor X; conditions: negative logarithm of concentration inhibiting 50% of initial rate; pH 8.4, room temperature; read-out: Activity of inhibiting activated blood coagulation factor X (pIC50) (converted)
T1 construct: purchased Enzyme Research Co
T1 sequence (P00742 235-488 limits assumed): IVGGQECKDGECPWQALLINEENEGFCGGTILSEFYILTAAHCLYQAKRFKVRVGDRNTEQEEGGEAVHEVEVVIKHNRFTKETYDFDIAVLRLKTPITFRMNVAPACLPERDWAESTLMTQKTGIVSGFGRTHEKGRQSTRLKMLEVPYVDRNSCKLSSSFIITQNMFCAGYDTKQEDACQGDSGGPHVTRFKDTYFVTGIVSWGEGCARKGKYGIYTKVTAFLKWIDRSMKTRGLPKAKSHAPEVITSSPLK
T1 sequence (P00742 41-179 partner limits assumed): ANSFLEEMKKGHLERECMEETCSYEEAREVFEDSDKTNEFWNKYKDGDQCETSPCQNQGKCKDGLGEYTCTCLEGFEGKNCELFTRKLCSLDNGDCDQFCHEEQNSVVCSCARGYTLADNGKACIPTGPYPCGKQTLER
Description: Determination of Activity of Inhibiting the Activated Blood-Coagulation Factor X
130 μl of 100 mM tris hydrochloride buffer adjusted to pH 8.4 was added to 10 μl of an aqueous solution of a compound to be tested. Then 10 μl of a 0.5 unit/ml solution of activated human blood coagulation factor X (a product of Enzyme Research Co.) in tris hydrochloride of pH 8.4 was added to the resultant mixture. After the incubation at room temperature for 10 minutes, 50 μl of a solution of N-benzoyl-L-isoleucyl-L-glutamyl-glycyl-L-arginyl-P-nitroanilide hydrochloride (a product of Peptide Institute, Inc.) adjusted to 0.8 mM with tris hydrochloride (pH 8.4) was added thereto. The absorbance was determined and then the initial reaction rate was determined. A control was prepared in the same manner as that described above except that the solution of the compound to be tested was replaced with 10 μl of tris hydrochloride buffer adjusted to pH 8.4. The absorbance was determined with MICROPLATE READER Model 3550-UV (a product of BIO RAD) at a wave length of 405 nm at intervals of 15 seconds for 16 minutes.

human thrombin = target: T2, human thrombin (Homo sapiens, UniProt P00734); assay: Determination of thrombin-inhibiting activity; conditions: negative logarithm of concentration inhibiting 50% of initial rate; substrate S-2238, pH 8.4; read-out: Thrombin-inhibiting activity (pIC50) (converted)
T2 construct: solution of human thrombin (a product of SIGMA Co.); purchased SIGMA Co
Description: Determination of Thrombin-Inhibiting Activity:
130 μl of 100 mM tris hydrochloride buffer adjusted to pH 8.4 was added to 10 μl of an aqueous solution of a test compound. Then 10 μl of a solution of human thrombin (a product of SIGMA Co.) adjusted to 2 units/ml with tris hydrochloride buffer of pH 8.4 was added to the resultant mixture. After the incubation at room temperature for 10 minutes, 50 μl of a solution of D-phenylalanyl-L-pipecolyl-L-arginyl-P-nitroanilide dihydrochloride (S-2238; a product of Daiichi Kagaku Yakuhin Co.) adjusted to 0.4 mM with tris hydrochloride buffer of pH 8.4 was added thereto. The absorbance was determined and then the initial reaction rate was determined. A control was prepared in the same manner as that described above except that the solution of the compound to be tested was replaced with 10 μl of tris hydrochloride buffer adjusted to pH 8.4. The absorbance was determined with MICROPLATE READER Model 3550-UV (a product of […]) at a wave length of 405 nm at intervals of 15 seconds for 16 minutes. The negative logarithm (pIC50) of a concentration of the test compound which inhibits 50% of the activity (initial rate) of the thrombin in the absence of the test compound was determined, and employed as the index of the activity of inhibiting thrombin.

[2] = tested on: blood plasma from healthy people (prothrombin time); assay: Determination of blood anticoagulating activity by prothrombin time (PT) determination method; conditions: negative logarithm of concentration which elongated PT of the control to twice as long; human blood plasma
Description: Determination of Blood Anticoagulating Activity:
The blood anticoagulating activity was determined by a prothrombin time (PT) determination method. The PT was determined as follows: The blood was taken from healthy people. 3.8% aqueous trisodium citrate solution was added to the blood in a volume ratio of 1:10. The blood plasma was separated by the centrifugation. 5 μl of DMSO solution containing a test compound was added to 45 μl of the blood plasma. After the incubation at room temperature for 2 minutes, a test tube containing the blood plasma solution was placed in Sysmex CA-3000 fully automatic blood coagulation determination device (a product of To a Medical Electronics Co., Ltd.), and incubated at 37° C. for 3 minutes. 100 μl of Sysmex PT II (rabbit brain tissue thromboplastin, 13.2 mM calcium chloride; a product of To a Medical Electronics Co., Ltd.) was fed into the test tube. PT was automatically determined with the device. A sample containing […] of DMSO in place of the solution of the test compound was used as the control. The negative logarithm (PT2) of the concentration of the test compound which elongated PT of the control to the twice as long was determined, and employed as the index of the blood anticoagulating activity.

SMILES | IC50 [1] [µM] | IC50 (human thrombin) [µM] | Blood anticoagulating activity (PT2) [2]
Nc1nccc2ccc(OC[C@@H](CCC(=O)O)NC(=O)C3CCN(c4ccncc4)CC3)cc12 [Compound of Ex. 21, (4R)-5-(1-aminoisoquinoline-7-yloxy)-4-[(1-(4-pyridyl)-4-piperidine)carbamido]pentanoic acid bistrifluoroacetate] | 0.158 | 316 | –
Nc1nccc2cc(CC(=O)C(=O)O)c(OCCNC(=O)c3ccc(C(=O)N4CCCC4)cc3)cc12 [Compound of Ex. 23, 3-[1-amino-(2-(4-(1-pyrrolidinecarbonyl)benzoylamino)ethoxy)isoquinoline-6-yl]-2-oxopropionic acid mono-trifluoroacetate] | 0.0251 | 15.8 | –
N=C(N)Nc1ccc(C(=O)N[C@H](CCC(=O)O)COc2ccc3ccnc(N)c3c2)cc1 [Compound of Ex. 25, (4R)-5-(1-aminoisoquinoline-7-yloxy)-4-[4-(guanidino)benzoylamino]pentanoic acid mono-trifluoroacetate] | 0.398 | 794 | –
CC(=N)N1CCC(Oc2ccc(C(=O)NCCOc3cc4c(N)nccc4cc3CC(=O)C(=O)O)cc2)CC1 [Compound of Ex. 26, 3-[1-amino-7-(2-(4-(1-acetimidoyl-4-piperidyloxy)benzoylamino)ethoxy)isoquinoline-6-yl]-2-oxopropionic acid bistrifluoroacetate] | 0.2 | > 501 | 6.2
Nc1nccc2cc(CC(=O)C(=O)O)c(OCCNC(=O)C3CCN(c4ccncc4)CC3)cc12 [Compound of Ex. 27, 3-[1-amino-7-(2-(4-(1-(4-pyridyl)-4-piperidine)carbonylamino)ethoxy)isoquinoline-6-yl]-2-oxopropionic acid bistrifluoroacetate] | 0.251 | > 501 | 6.2

Now from value to compound, other results behind:

IC50 [1] [µM] | IC50 (human thrombin) [µM] | SMILES | Blood anticoagulating activity (PT2) [2]
0.251 | 251 | Nc1nccc2ccc(OCCNC(=O)c3ccc(C(=O)N4CCCC4)cc3)cc12 [Compound of Ex. 2, N-[2-(1-aminoisoquinoline-7-yloxy)ethyl]-4-(1-pyrrolidinecarbonyl)benzamide mono-trifluoroacetate] | 5.5
0.0794 | > 1000 | Nc1nccc2ccc(OC[C@@H](CCC(=O)O)NC(=O)c3ccc(C(=O)N4CCCC4)cc3)cc12 [Compound of Ex. 16, (4R)-5-(1-aminoisoquinoline-7-yloxy)-4-[4-(1-pyrrolidinecarbonyl)benzoylamino]pentanoic acid mono-trifluoroacetate] | 5.6
0.251 | 316 | CCOC(=O)CC[C@H](COc1ccc2ccnc(N)c2c1)NC(=O)c1ccc(C(=O)N2CCCC2)cc1 [Compound of Ex. 17, ethyl (4R)-5-(1-aminoisoquinoline-7-yloxy)-4-[4-(1-pyrrolidinecarbonyl)benzoylamino]pentanoate mono-trifluoroacetate] | –
